Legend:
[1] = test system: control sera (pooled serum of ten healthy LUMC hospital workers; commercial negative donor pooled serum from the Dutch bloodbank); assay type: binding, human; design: Binding of Control serum LUMC to linear peptides / Binding of Control serum Blood-bank to linear peptides / Binding of Control serum LUMC to looped peptides / Binding of Control Serum Blood-Bank to Looped peptides / Binding of Control serum LUMC to linear peptides of the protein M of SARS-CoV Urbani / Binding of Control serum Blood-bank to linear peptides of the protein M of SARS-CoV Urbani / Binding of Control serum LUMC to looped peptides of the protein M of SARS-CoV Urbani / Binding of Control Serum Blood-Bank to Looped peptides of the protein M of SARS-CoV Urbani: unit not given here
[2] = test system: rabbit serum obtained by immunizing a rabbit with the SARS-CoV strain Frankfurt 1; assay type: binding; design: Binding of a rabbit serum to linear peptides / Binding of a rabbit serum to looped peptides / Rabbit serum linear peptides / Rabbit serum looped peptides / Binding of a rabbit serum to linear peptides of protein N of SARS-CoV Urbani (Rabbit serum linear peptides) / Binding of a rabbit serum to looped/cyclic peptides of protein N of SARS-CoV Urbani (Rabbit serum looped peptides): unit not given here
[3] = test system: antibodies in sera from SARS patients (sera 1a, 1b, 2, 6, 37, 62, London, SARS-yellow, SARS-green); assay type: binding, human; design: Binding of serum 6 to linear peptides of protein X1 of SARS-CoV Urbani / Binding of serum 37 to linear peptides of protein X1 of SARS-CoV Urbani / Binding of serum 6 to looped/cyclic peptide (PEPSCAN-ELISA) / Binding of serum 37 to looped/cyclic peptide (PEPSCAN-ELISA) / Binding of serum 37 to looped/cyclic peptides of protein X1 of SARS-CoV Urbani / Binding of serum 6 to linear peptides of protein X2 / Binding of serum 37 to linear peptides of protein X2 / Binding of serum 37 to looped/cyclic peptides of protein X2 of SARS-CoV Urbani / Binding of serum 6 to linear peptides of protein M of SARS-CoV Urbani / Binding of serum 37 to linear peptides of protein M of SARS-CoV Urbani / Binding of serum 6 to looped/cyclic peptides of protein M of SARS-CoV Urbani / Binding of serum 37 to looped/cyclic peptides of protein M of SARS-CoV Urbani / Binding of serum 6 to linear peptides of protein X3 of SARS-CoV Urbani / Binding of serum 37 to linear peptides of protein X3 of SARS-CoV Urbani / Binding of serum 37 to looped/cyclic peptides of protein X3 of SARS-CoV Urbani / Binding of serum 6 to linear peptides of protein X4 of SARS-CoV Urbani / Binding of serum 37 to linear peptides of protein X4 of SARS-CoV Urbani / Binding of serum 37 to looped/cyclic peptides of protein X4 of SARS-CoV Urbani / Binding of serum 6 to linear peptides of protein X5 of SARS-CoV Urbani / Binding of serum 37 to linear peptides of protein X5 of SARS-CoV Urbani / Binding of serum 37 to looped/cyclic peptides of protein X5 of SARS-CoV Urbani / Binding of serum 6 to linear peptides of protein N of SARS-CoV Urbani / Binding of serum 37 to linear peptides of protein N of SARS-CoV Urbani / Binding of serum 6 to linear peptide (PEPSCAN-ELISA) / Binding of serum 1a to looped/cyclic peptides of protein N of SARS-CoV Urbani / Binding of serum 1b to looped/cyclic peptides of protein N of SARS-CoV Urbani / Binding of serum 2 to looped/cyclic peptides of protein N of SARS-CoV Urbani / Binding of serum 6 to looped/cyclic peptides of protein N of SARS-CoV Urbani / Binding of serum 37 to looped/cyclic peptides of protein N of SARS-CoV Urbani / Binding of serum 62 to looped/cyclic peptides of protein N of SARS-CoV Urbani / Binding of serum London to looped/cyclic peptides of protein N of SARS-CoV Urbani / Binding of serum SARS-green to looped/cyclic peptides of protein N of SARS-CoV Urbani: unit not given here

| Sequence | Binding of Control Serum Blood-Bank to Looped peptides [1] | Binding of Control serum Blood-bank to linear peptides [1] | Binding of Control serum LUMC to linear peptides [1] | Binding of Control serum LUMC to looped peptides [1] | Binding of a rabbit serum to linear peptides [2] | Binding of a rabbit serum to looped peptides [2] | Binding of serum 1a to looped/cyclic peptide (PEPSCAN-ELISA) [3] | Binding of serum 1b to looped/cyclic peptide (PEPSCAN-ELISA) [3] | Binding of serum 2 to looped/cyclic peptide (PEPSCAN-ELISA) [3] | Binding of serum 6 to looped/cyclic peptide (PEPSCAN-ELISA) [3] | Binding of serum 37 to looped/cyclic peptide (PEPSCAN-ELISA) [3] | Binding of serum 62 to looped/cyclic peptide (PEPSCAN-ELISA) [3] | Binding of serum London to looped/cyclic peptide (PEPSCAN-ELISA) [3] | Binding of serum SARS-green to looped/cyclic peptide (PEPSCAN-ELISA) [3] | Binding of serum SARS-yellow to looped/cyclic peptide (PEPSCAN-ELISA) [3] | other results |
| --- | --- | --- | --- | --- | --- | --- | --- | --- | --- | --- | --- | --- | --- | --- | --- | --- |
| CWLCWKCKSKNPLLY | 0.6 | 0.9 | 0.7 | 0.7 | 0.2 | 0.7 | 0.7 | 0.4 | 0.5 | 0.7 | 0.7 | 0.7 | 0.3 | 0.3 | 0.5 | Recognition of the peptide by sera of SARS-CoV infected individuals, and form (linear, looped/cyclic) in which it is recognized [3]: recognized in linear form |
| DGTRHTYQLRARSVS | 0.8 | 0.6 | 0.5 | 0.7 | – | – | – | – | – | – | – | – | – | – | – | Recognition of the peptide by the rabbit serum [2]: recognized; Binding of serum 1a to linear peptides of protein X4 of SARS-CoV Urbani [3]: 0.6; Binding of serum 1a to looped/cyclic peptides of protein X4 of SARS-CoV Urbani [3]: 0.8; Binding of serum 1b to linear peptides of protein X4 of SARS-CoV Urbani [3]: 0.5; Binding of serum 1b to looped/cyclic peptides of protein X4 of SARS-CoV Urbani [3]: 0.5; Binding of serum 2 to linear peptides of protein X4 of SARS-CoV Urbani [3]: 0.8; Binding of serum 2 to looped/cyclic peptides of protein X4 of SARS-CoV Urbani [3]: 0.8; Binding of serum 6 to linear peptides of protein X4 of SARS-CoV Urbani [3]: 0.8; Binding of serum 6 to looped/cyclic peptides of protein X4 of SARS-CoV Urbani [3]: 0.8; Binding of serum 37 to linear peptides of protein X4 of SARS-CoV Urbani [3]: 0.8; Binding of serum 37 to looped/cyclic peptides of protein X4 of SARS-CoV Urbani [3]: 0.7; Binding of serum 62 to linear peptides of protein X4 of SARS-CoV Urbani [3]: 0.7; Binding of serum 62 to looped/cyclic peptides of protein X4 of SARS-CoV Urbani [3]: 0.7; Binding of serum London to linear peptides of protein X4 of SARS-CoV Urbani [3]: 0.7; Binding of serum London to looped/cyclic peptides of protein X4 of SARS-CoV Urbani [3]: 0.4; Binding of serum SARS-green to linear peptides of protein X4 of SARS-CoV Urbani [3]: 0.4; Binding of serum SARS-green to looped/cyclic peptides of protein X4 of SARS-CoV Urbani [3]: 0.6; Binding of serum SARS-yellow to linear peptides of protein X4 of SARS-CoV Urbani [3]: 0.5; Binding of serum SARS-yellow to looped/cyclic peptides of protein X4 of SARS-CoV Urbani [3]: 0.7 |
| DLFMRFFTLGSITAQ | 0.5 | 0.6 | 0.6 | 0.5 | 0.1 | 0.3 | 0.5 | 0.3 | 0.3 | 0.3 | 0.5 | 0.5 | 0.2 | 0.2 | 0.2 | Binding of serum 1a to linear peptides of protein X1 of SARS-CoV Urbani [3]: 0.7; Binding of serum 1b to linear peptides of protein X1 of SARS-CoV Urbani [3]: 0.5; Binding of serum 2 to linear peptides of protein X1 of SARS-CoV Urbani [3]: 0.4; Binding of serum 6 to linear peptides of protein X1 of SARS-CoV Urbani [3]: 0.1; Binding of serum 37 to linear peptides of protein X1 of SARS-CoV Urbani [3]: 0.6; Binding of serum 62 to linear peptides of protein X1 of SARS-CoV Urbani [3]: 0.5; Binding of serum London to linear peptides of protein X1 of SARS-CoV Urbani [3]: 0.2; Binding of serum SARS-green to linear peptides of protein X1 of SARS-CoV Urbani [3]: 0.2; Binding of serum SARS-yellow to linear peptides of protein X1 of SARS-CoV Urbani [3]: 0.4 |
